Reference: ChEMBL document CHEMBL5241083, “Lysophosphatidic acid (LPA) receptor modulators: Structural features and recent development” (Eur J Med Chem, 2021)
Values belong to the compound of their own block, whether it stands above or below them.

Legend:
[1] = molecular target: T1, Lysophosphatidic acid receptor 5 (Homo sapiens, UniProt Q9H1C0); experiment: Antagonist activity at human LPA5 receptor by FLIPR analysis
[2] = molecular target: T2, Lysophosphatidic acid receptor 3 (Homo sapiens, UniProt Q9UBY5); experiment: Antagonist activity at human LPA3 receptor; assay type: cell-based, CHO
T2 sequence (Q9UBY5 whole entry): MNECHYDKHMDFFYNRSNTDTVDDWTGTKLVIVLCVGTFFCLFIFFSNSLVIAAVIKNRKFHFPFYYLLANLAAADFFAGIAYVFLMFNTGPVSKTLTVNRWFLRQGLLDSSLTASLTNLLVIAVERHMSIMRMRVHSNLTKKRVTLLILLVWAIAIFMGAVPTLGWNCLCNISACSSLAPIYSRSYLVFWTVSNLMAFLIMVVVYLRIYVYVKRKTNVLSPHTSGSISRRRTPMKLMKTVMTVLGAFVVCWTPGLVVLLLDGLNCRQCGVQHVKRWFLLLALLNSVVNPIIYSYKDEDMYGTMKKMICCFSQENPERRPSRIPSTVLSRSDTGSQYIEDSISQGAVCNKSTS

[3] = molecular target: T3, Lysophosphatidic acid receptor 1 (Homo sapiens, UniProt Q92633); experiment: Antagonist activity at human LPA1 receptor expressed in CHO cells; assay type: cell-based
[4] = molecular target: T3, Lysophosphatidic acid receptor 1; experiment: Antagonist activity at human LPA1 receptor
[5] = molecular target: T4, Lysophosphatidic acid receptor 2 (Homo sapiens, UniProt Q9HBW0); experiment: Antagonist activity at human LPA2 receptor assessed as inhibition of LPA-induced calcium release
[6] = molecular target: T1, Lysophosphatidic acid receptor 5; experiment: Antagonist activity at human LPA5 receptor assessed as inhibition of […] cAMP accumulation incubated for 20 mins
[7] = molecular target: T3, Lysophosphatidic acid receptor 1; experiment: Antagonist activity at LPA1 receptor (unknown origin) assessed as inhibition constant
[8] = molecular target: T1, Lysophosphatidic acid receptor 5; experiment: Antagonist activity at human LPA5 receptor expressed in CHO cells assessed as inhibition of LPA stimulated calcium release incubated for 20 mins followed by […] and measured for 90 seconds; assay type: cell-based
[9] = molecular target: T4, Lysophosphatidic acid receptor 2; experiment: Inhibition of LPA2 receptor (unknown origin)
[10] = molecular target: T4, Lysophosphatidic acid receptor 2; experiment: Antagonist activity at LPA2 receptor (unknown origin)
HEK-293T = experiment: Antiproliferative activity against human HEK293T cells assessed as inhibition of cell growth; assay type: functional, cell-based

T3 sequence (Q92633 whole entry): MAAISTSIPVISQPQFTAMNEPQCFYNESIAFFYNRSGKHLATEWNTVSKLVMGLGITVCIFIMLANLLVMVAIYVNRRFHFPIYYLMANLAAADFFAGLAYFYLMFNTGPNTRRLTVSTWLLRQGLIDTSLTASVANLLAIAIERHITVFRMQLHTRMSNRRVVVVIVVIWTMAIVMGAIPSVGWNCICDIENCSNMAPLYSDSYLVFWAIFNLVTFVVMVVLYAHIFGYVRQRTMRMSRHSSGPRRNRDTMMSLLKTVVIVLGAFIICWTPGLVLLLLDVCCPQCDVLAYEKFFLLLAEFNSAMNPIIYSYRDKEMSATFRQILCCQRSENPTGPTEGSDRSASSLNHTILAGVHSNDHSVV
T4 sequence (Q9HBW0 whole entry): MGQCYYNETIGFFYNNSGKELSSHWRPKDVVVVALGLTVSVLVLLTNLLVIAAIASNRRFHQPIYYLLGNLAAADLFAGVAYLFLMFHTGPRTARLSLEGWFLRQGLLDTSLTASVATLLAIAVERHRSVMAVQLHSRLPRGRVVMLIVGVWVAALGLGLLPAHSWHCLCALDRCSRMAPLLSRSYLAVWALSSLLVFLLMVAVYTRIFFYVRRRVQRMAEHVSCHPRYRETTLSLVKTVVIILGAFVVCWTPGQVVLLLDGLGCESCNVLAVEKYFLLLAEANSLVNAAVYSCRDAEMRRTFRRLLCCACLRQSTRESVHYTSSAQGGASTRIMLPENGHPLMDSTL
T1 sequence (Q9H1C0 whole entry): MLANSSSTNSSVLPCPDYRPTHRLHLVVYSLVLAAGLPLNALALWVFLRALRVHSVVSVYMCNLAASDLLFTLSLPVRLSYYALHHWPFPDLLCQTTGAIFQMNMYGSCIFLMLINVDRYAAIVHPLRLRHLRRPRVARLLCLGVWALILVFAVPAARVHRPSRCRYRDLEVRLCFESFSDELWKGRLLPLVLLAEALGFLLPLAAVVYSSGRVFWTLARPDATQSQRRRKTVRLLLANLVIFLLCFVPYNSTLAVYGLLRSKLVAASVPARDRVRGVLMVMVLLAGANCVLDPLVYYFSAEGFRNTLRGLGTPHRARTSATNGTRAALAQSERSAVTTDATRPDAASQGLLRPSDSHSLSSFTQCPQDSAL

IC50 [5]: < 1000 nM
SMILES: O=C1CC(O)(C(F)(F)F)c2c(-c3ccncc3)n[nH]c2N1 (stereo not given)

IC50 [5]: < 1000 nM
SMILES: COc1cccc(-c2n[nH]c3c2C(O)(C(F)(F)F)CC(=O)N3)c1 (stereo not given)

EC50 [2]: < 50 nM
EC50 [3]: < 50 nM
SMILES: CC(OC(=O)Nc1c(-c2ccc(-c3ccc(C4(C(=O)O)CC4)cc3)cc2)oc2cnccc12)c1ccccc1Cl (stereo not given)

IC50 [4]: 110 nM
SMILES: COc1cc(C(=O)N(CCCc2ccccc2)Cc2ccc(Oc3ccccc3C(=O)O)cc2)cc(OC)c1OC

IC50 [4]: 100 nM
SMILES: COc1ccc(C(=O)NC2(C(=O)O)CC3CCC(C3)C2)cc1OCCc1cccc(C)c1 (stereo not given)

IC50 [5]: < 1000 nM
SMILES: O=C1CC(O)(C(F)(F)F)c2c(-c3cccc(Cl)c3)n[nH]c2N1 (stereo not given)

IC50 [4]: 100 nM
SMILES: CSc1ccc(C(=O)NC2(C(=O)O)Cc3ccccc3C2)cc1OCCc1cccc(C)c1

IC50 [5]: < 1000 nM
SMILES: O=C1CC(O)(C(F)(F)F)c2c(-c3ccc(F)cc3)n[nH]c2N1 (stereo not given)

IC50 [9]: 10 nM
SMILES: O=C(Nc1nc2ccccc2[nH]1)C1CC1c1ccccc1Cl (stereo not given)

IC50 [9]: < 10 nM
SMILES: O=C(Nc1nc2ccccc2[nH]1)C1CC1c1ccccc1 (stereo not given)

IC50 [5]: < 1000 nM
SMILES: O=C1CC(O)(C(F)(F)F)c2c(-c3cccc(F)c3)n[nH]c2N1 (stereo not given)

IC50 [10]: < 500 nM
SMILES: Fc1ccc(CN2CCCCC2c2cc3ccccc3[nH]2)cc1 (stereo not given)

IC50 [6]: 38 nM
SMILES: COc1cc2c(C(=O)N3CCCCC3)cn(-c3noc4ccc(C)cc34)c(=O)c2cc1OC

IC50 [5]: < 1000 nM
SMILES: O=C1CC(O)(C(F)(F)F)c2c(-c3cccc(C(F)(F)F)c3)n[nH]c2N1 (stereo not given)

IC50 [10]: < 500 nM
SMILES: Cc1cccc(CN2CCCCC2c2cc3ccccc3[nH]2)c1 (stereo not given)

IC50 [4]: 100 nM
SMILES: COc1ccc(C(=O)NC2(C(=O)O)CCCCCC2)cc1OCCc1cccc(Cl)c1

EC50 [2]: < 50 nM
EC50 [3]: < 50 nM
SMILES: CC(OC(=O)Nc1c(-c2ccc(-c3ccc(C4(C(=O)O)CC4)cc3)cc2)oc2cnccc12)c1ccccc1 (stereo not given)

IC50 [9]: 10 nM
SMILES: O=C(Nc1nc2cc(Cl)ccc2[nH]1)C1CC1c1ccccc1 (stereo not given)

IC50 [5]: < 1000 nM
SMILES: COc1ccc(-c2n[nH]c3c2C(O)(C(F)(F)F)CC(=O)N3)cc1 (stereo not given)

IC50 [5]: < 1000 nM
SMILES: O=C1CC(O)(C(F)(F)F)c2c(-c3cccs3)n[nH]c2N1 (stereo not given)

The next lines start with the compound.

SMILES: Cc1c(COC(C)(C)C(=O)NCc2ccc(C(=O)O)cc2)nn(-c2ccccc2Cl)c1-c1ccc(C(F)(F)F)cc1
IC50 [1]: 1300 nM

SMILES: Cc1noc(-c2ccc(-c3ccc(CC(=O)O)c4c3CCC4)cc2)c1NC(=O)OC(C)c1ccccc1Cl (stereo not given)
EC50 [2]: < 50 nM
EC50 [3]: < 50 nM

SMILES: COc1ccc(C(=O)NC2(C(=O)O)CCC(C)C2)cc1OCCc1cccc(C)c1 (stereo not given)
IC50 [4]: 100 nM

SMILES: CCN1CCCc2ccc(-n3cc(C(=O)N4CCCCC4)c4cc(OC)c(OC)cc4c3=O)cc21
IC50 ([6]; filed as antagonist): 38 nM

SMILES: CC1=C(NC(=O)OC(C)c2ccccc2Cl)C(c2ccc(CSCCC(=O)O)cc2)ON1 (stereo not given)
Ki [7]: 6420 nM

SMILES: Cc1c(COC(C)(C)C(=O)NCc2ccc(C(=O)O)cc2)nn(-c2ccc(Cl)cc2Cl)c1-c1ccc(C(F)(F)F)cc1
IC50 [1]: 30 nM

SMILES: Cc1c(COC(C)(C)C(=O)NCc2ccc(C(=O)O)cc2)nn(-c2ccc(Cl)cc2Cl)c1-c1ccc(Cl)cc1
IC50 [1]: 1300 nM
IC50 [8]: 2900 nM

SMILES: COc1ccc(C(=O)NC2(C(=O)O)CCCCCC2)cc1OCCc1cc(Cl)ccc1F
IC50 [4]: 100 nM

SMILES: Cc1cccc(C2CC2C(=O)Nc2nc3ccccc3[nH]2)c1 (stereo not given)
IC50 [9]: 10 nM

SMILES: O=C1CC(O)(C(F)(F)F)c2c(-c3ccccc3)n[nH]c2N1 (stereo not given)
IC50 [5]: < 1000 nM

SMILES: Cc1ccc(-c2n[nH]c3c2C(O)(C(F)(F)F)CC(=O)N3)cc1 (stereo not given)
IC50 [5]: < 1000 nM

SMILES: CCC1CC1(NC(=O)c1ccc(OC)c(OCCc2cccc(C)c2)c1)C(=O)O (stereo not given)
IC50 [4]: 100 nM

SMILES: O=C1CC(O)(C(F)(F)F)c2c(-c3cccc(Br)c3)n[nH]c2N1 (stereo not given)
IC50 [5]: < 1000 nM

SMILES: O=C(Nc1nc2cc(C(F)(F)F)ccc2[nH]1)C1CC1c1ccccc1 (stereo not given)
IC50 [9]: 10 nM

SMILES: Cc1cccc(CN2C(C)CCCC2c2cc3cc(F)ccc3[nH]2)c1 (stereo not given)
IC50 [10]: < 500 nM

SMILES: CCCCCCCC/C=C/CCCCCCCC(=O)N[C@H](COP(=O)(O)O)Cc1ccc(OCc2ccccc2)cc1
IC50 (HEK-293T): 130 nM
